Test results from patent US20250032425A1, “FIRST IN CLASS USE OF ESTROGEN RECEPTOR BETA AGONISTS IN TREATING ANGELMAN SYNDROME AND RELEVANT AUTISM SPECTRUM DISORDERS” (BROWN UNIVERSITY, priority 2023, published 2025).
Entries after “also recorded” stand apart in the source; their conditions may differ.

Test system: UBE3A-deficient iOPCs
Test: Ki67 (and PCNA) immunoblotting in UBE3A-knockdown iOPCs: compound screen and rescue of proliferation
Format: cell-based, human
Details: for EC50: Homo sapiens, iOPCs treated with siUBE3A, Ki67 immunoblotting normalized to siNC plus vehicle, read-out: EC50 for rescue of Ki67 expression; for Ki67 expression (FIG. 19G) / PCNA expression (FIG. 19G): siUBE3A cells, normalized to GAPDH
Method: Given the scarcity of knowledge regarding UBE3A function in oligodendrocyte biology, a comprehensive exploration of various cellular functions was performed, leveraging the high-throughput capabilities of the iPSC-based methodology (e.g., as described herein). We selected over 45 compounds with known targeted cellular actions (Table 1). These were chosen based on their documented effects on UBE3A, their ability to promote oligodendrocyte development and myelination, or their protective 10 roles in neural tissue. UBE3A expression was modulated using siRNA, achieving a controlled reduction that decreased OPC proliferation by approximately 50%, as evidenced by Ki67 protein levels.
iPSC Culturing and Generation of Induced Human Brain Cells Including Oligodendroglia, Neurons (IN), Astrocytes (iAs) and Microglia (iMG) The generation of iPSC-derived human oligodendrocyte precursor cells (iOPCs) was carried out according to a previously published protocol by Vulakh and Yang et al., 2023 (Characterizing the Neuron-Glial Interactions by the Co-cultures of Human iPSC-Derived Oligodendroglia and Neurons. Methods Mol. Biol. 2683), which itself was a modification of an earlier protocol by Assetta et al., 2020 (Generation of Human Neurons and Oligodendrocytes from Pluripotent Stem Cells for Modeling Neuron-Oligodendrocyte Interactions. J Vis Exp.). The process began with the control iPSCs, which is a well-characterized control reference line acquired from the NIH-funded iPSC Neurodegenerative Disease Initiative (INDI, (Ramos, D. M., Skarnes, W. C., Singleton, A. B., Cookson, M. R., and Ward, M. E. (2021). Tackling neurodegenerative diseases with genomic engineering: A new stem cell initiative from the NIH. Neuron 109, 1080-1083. 10.1016/j.neuron.2021.03.022)), distributed by the Jackson Laboratory. These iPSCs were maintained in mTeSR plus medium (StemCell Technologies, #05825) and expanded in Stem Flex medium (Fisher Scientific. #A3349401) for the induction of neural progenitor cells (INPC). The iNPCs were derived by treating iPSCs with a commercial SMAD inhibitor medium (StemCell Technologies, #08582) for 7 days (Week 1). Subsequently, NPCs were further induced to become OPCs by a 7-day incubation (Week 2) with a chemically-defined OPC medium: DMEM/F12 medium (Thermo Fisher, #11320033) supplemented by 10 ng/ml PDGF-AA (R&D Systems, #221-AA-025), 1 μM SAG (Tocris, #4366), […] N-Acetyl-Cysteine (Millipore Sigma, #A9165-5G), 20 ng/mL bFGF (R&D Systems, #233-FB-025/CF), 1% N2 supplement (Thermo Fisher, #17502048), and 1% B27 supplement (Thermo Fisher, #17504044). […] The additional incubation with OL medium for 7-14 days (Week 4-5) yielded mature, myelinating OLs.
The siRNAs targeting UBE3A (Thermo Fisher, #4390815 and #4390816), estrogen receptors (Thermo Scientific #145909 for ESRβ, #145539 for ESRα, and #4390824 for GPER), and negative control (Thermo Scientific, #AM4615) were obtained commercially. The 10-20 nM final concentration was used with Lipofectamine RNAiMAX transfection reagent (Thermo Scientific #13778075) and incubated for at least 48 hours before the treatments of therapeutic compounds or other reagents.
Cells were collected by fast spin down in centrifuge tubes before lysis in RIPA buffer (ThermoFisher, #89901) supplemented with proteinase inhibitor cocktail (Sigma-Aldrich, #5892791001) on ice. Lysates were then spun down at 15000 rpm for 10 mins, the supernatant was collected and mixed with 4× Laemmle sample buffer (Bio-Rad, #1610747) and cooked 10 mins before SDS-PAGE and transferred with Bio-Rad fast transfer system, the membranes were blocked for one hour in 1× Tris Buffered Saline (TBS) with 1% Casein buffer (Bio-Rad, #1610782) and incubated with primary antibodies overnight at 4 degrees. […]

Row | SMILES | restoration of Ki67 expression in compound screen (10 μM, 24 hours, Ki67 immunoblotting normalized to siNC=1.0) | EC50 (24 hours) [µM] | Ki67 expression (FIG. 19G) (10 μM, 24 hours) | PCNA expression (FIG. 19G) (10 μM, 24 hours) | impact of UBE3A loss on OPC proliferation (FIG. 18F, 19G) (ERβ activators of different structural classes)
1 | Oc1ccc(C2(c3ccccc3F)CCC(F)(F)CC2)cc1 [AC-186] | restored; also recorded: effectively normalized proliferation levels; also recorded: Statistically significant; also recorded: capable of restoring Ki67 expression | ~0.016 | increased expression | increased expression | 
2 | N#CC(Cc1ccc(O)cc1)c1ccc(O)cc1 (centres unmarked) [DPN, diarylpropionitrile, reference compound] |  | ~0.019 | increased expression | increased expression | similarly mitigated the impact of UBE3A loss on OPC proliferation
